Assay [1] addresses T1, human sphingosine-1-phosphate receptor 1 (S1P1) (Homo sapiens (Human), UniProt P21453). The experiment in a line: Inhibition of cAMP production (HTRF cAMP HiRange), S1P1 CHO-K1 cells. In kind it is cell-based. To be noted: for Emax: CHO-K1, efficacy (SPAN) normalized to fingolimod, read-out: hS1P1 cAMP SPAN; for hS1P1 cAMP pEC50 / EC50: inhibition of cAMP production, S1P1 CHO-K1 cells; for EC50: read-out: hS1P1 cAMP pEC50 (converted). The gist of the method:
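CHO-K1 cells stably co-expressing human S1P1 (C-terminal Prolink tag) and EA-β-arrestin2 were grown in AssayComplete Media 6 at 37° C. and 5% CO2, plated, and incubated overnight. Agonist-driven inhibition of intracellular cAMP was read by TR-FRET with the HTRF cAMP HiRange kit on a PheraStar reader. Potency is pEC50, and efficacy (SPAN) is normalized to fingolimod.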
Target sequence in this assay (P21453 whole entry, looked up): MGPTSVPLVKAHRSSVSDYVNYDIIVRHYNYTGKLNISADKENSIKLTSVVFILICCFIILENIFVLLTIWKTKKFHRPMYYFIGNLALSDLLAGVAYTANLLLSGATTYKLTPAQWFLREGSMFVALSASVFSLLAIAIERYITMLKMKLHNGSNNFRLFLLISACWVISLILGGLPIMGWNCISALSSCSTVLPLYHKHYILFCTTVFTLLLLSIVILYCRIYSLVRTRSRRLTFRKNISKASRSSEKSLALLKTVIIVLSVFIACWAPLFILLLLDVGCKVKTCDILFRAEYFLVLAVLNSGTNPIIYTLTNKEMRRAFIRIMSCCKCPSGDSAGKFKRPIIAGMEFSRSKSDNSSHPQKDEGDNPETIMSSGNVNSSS

In assay [2] the target is T1, human sphingosine-1-phosphate receptor 1 (S1P1). The experiment in a line: β-Arrestin2 recruitment assay (PathHunter), S1P1 CHO-K1 cells. It counts as cell-based. To be noted: for Emax: CHO-K1, efficacy (SPAN) normalized to fingolimod, read-out: hS1P1 B-arrestin2 SPAN; for hS1P1 B-arrestin2 pEC50 / EC50: β-arrestin2 recruitment, S1P1 CHO-K1 cells; for EC50: read-out: hS1P1 B-arrestin2 pEC50 (converted). The gist of the method:
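Enzyme-fragment complementation read-out: agonist-driven β-arrestin2 binding to ProLink-tagged human S1P1 in stable CHO-K1 cells restores β-galactosidase, measured 1 h at room temperature after a 60 min 37° C. compound incubation. Potency as pEC50, efficacy relative to fingolimod (SPAN).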
Target sequence in this assay (P21453 whole entry, looked up): as above
Target sequence in this assay (P32121 whole entry partner, looked up): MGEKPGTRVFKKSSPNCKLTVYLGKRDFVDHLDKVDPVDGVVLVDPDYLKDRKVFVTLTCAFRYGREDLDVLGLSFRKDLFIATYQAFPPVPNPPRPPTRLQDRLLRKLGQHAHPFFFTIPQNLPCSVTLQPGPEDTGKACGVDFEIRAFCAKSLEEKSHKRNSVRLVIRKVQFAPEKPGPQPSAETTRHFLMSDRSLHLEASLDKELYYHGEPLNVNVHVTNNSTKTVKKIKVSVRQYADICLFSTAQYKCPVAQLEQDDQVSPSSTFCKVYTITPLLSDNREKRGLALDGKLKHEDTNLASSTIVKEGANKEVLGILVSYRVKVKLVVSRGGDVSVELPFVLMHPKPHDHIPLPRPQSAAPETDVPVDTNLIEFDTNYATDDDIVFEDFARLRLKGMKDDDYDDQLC

Bounds are passed on as bounds.

`FC(F)Oc1ccc(-c2noc(-c3ccc4c(c3)nnn4C3CCCC3)n2)cc1` [Compound 80, 1-cyclopentyl-5-{3-[4-(difluoromethoxy)phenyl]-1,2,4-oxadiazol-5-yl}-1H-1,2,3-benzotriazole]: in assay [1], the Emax was below 75% and the “hS1P1 cAMP pEC50” value is recorded as above 6.5. Moreover, in assay [2], the Emax is below 75% and the “hS1P1 B-arrestin2 pEC50” value is reported as below 5.

In the case of `COC(=O)Cn1nnc2cc(-c3noc(-c4ccccc4Br)n3)ccc21` [Compound 81, methyl 2-(5-(5-(2-bromophenyl)-1,2,4-oxadiazol-3-yl)-1H-benzo[d][1,2,3]triazol-1-yl)acetate], in assay [1], the Emax was above 75% and the EC50 is above 0.316 µM. In addition, in assay [2], the Emax is below 75% and the EC50 was above 10 µM.

Take `Clc1ccc(-c2noc(-c3ccc4c(c3)nnn4C3CCOCC3)n2)s1` [Compound 82, 5-[3-(5-chlorothiophen-2-yl)-1,2,4-oxadiazol-5-yl]-1-(oxan-4-yl)-1H-1,2,3-benzotriazole]: in assay [1], the Emax was below 75% and the “hS1P1 cAMP pEC50” value is reported as below 6.5. For the same compound, in assay [2], the Emax was below 75% and the “hS1P1 B-arrestin2 pEC50” value was below 5.

Take `Brc1ccccc1-c1noc(-c2ccc3c(c2)nnn3C2CC2)n1` [Compound 83, 5-[3-(2-bromophenyl)-1,2,4-oxadiazol-5-yl]-1-cyclopropyl-1H-1,2,3-benzotriazole]: in assay [1], the Emax is above 75% and the “hS1P1 cAMP pEC50” value was above 6.5. Moreover, in assay [2], the Emax is above 75% and the “hS1P1 B-arrestin2 pEC50” value is given as above 5.

As to `FC(F)(F)Oc1ccccc1-c1nc(-c2ccc3c(c2)nnn3C2CCCC2)no1` [Compound 84, 3-(1-cyclopentyl-1H-benzo[d][1,2,3]triazol-5-yl)-5-(2-(trifluoromethoxy)phenyl)-1,2,4-oxadiazole], in assay [1], the Emax was below 75% and the “hS1P1 cAMP pEC50” value is on record as below 6.5. Besides, in assay [2], the Emax is above 75% and the “hS1P1 B-arrestin2 pEC50” value was above 5.

Consider `FC(F)(F)c1cc(-c2noc(-c3ccc4c(c3)nnn4C3CC3)n2)ccc1OCc1ccccc1` [Compound 85, 5-{3-[4-(benzyloxy)-3-(trifluoromethyl)phenyl]-1,2,4-oxadiazol-5-yl}-1-cyclopropyl-1H-1,2,3-benzotriazole], for which, in assay [1], the Emax was below 75% and the “hS1P1 cAMP pEC50” value is below 6.5. For the same compound, in assay [2], the Emax was below 75% and the “hS1P1 B-arrestin2 pEC50” value is reported as below 5.

Consider `Cc1cc(-c2nc(-c3ccc4c(c3)nnn4C(C)C)no2)ccn1` [Compound 86, 3-(1-isopropyl-1H-benzo[d][1,2,3]triazol-5-yl)-5-(2-methylpyridin-4-yl)-1,2,4-oxadiazole], for which, in assay [1], the Emax was below 75% and the “hS1P1 cAMP pEC50” value is listed as below 6.5. Besides, in assay [2], the Emax was above 75% and the “hS1P1 B-arrestin2 pEC50” value was below 5.

For the compound `Cc1ccc(-c2noc(-c3ccc4c(c3)nnn4C3CC3)n2)cn1` [Compound 87, 1-cyclopropyl-5-[3-(6-methylpyridin-3-yl)-1,2,4-oxadiazol-5-yl]-1H-1,2,3-benzotriazole], in assay [1], the Emax is below 75% and the “hS1P1 cAMP pEC50” value is listed as below 6.5. For the same compound, in assay [2], the Emax is below 75% and the “hS1P1 B-arrestin2 pEC50” value is listed as below 5.

Regarding `CC(C)n1nnc2cc(-c3nc(Cc4ccccc4)no3)ccc21` [Compound 88, 5-(3-benzyl-1,2,4-oxadiazol-5-yl)-1-(propan-2-yl)-1H-1,2,3-benzotriazole], in assay [1], the Emax is below 75% and the “hS1P1 cAMP pEC50” value was below 6.5. Also, in assay [2], the Emax was below 75% and the “hS1P1 B-arrestin2 pEC50” value was below 5.

As for `CC(C)n1nnc2cc(-c3noc(C4CCOCC4)n3)ccc21` [Compound 89, 5-[5-(oxan-4-yl)-1,2,4-oxadiazol-3-yl]-1-(propan-2-yl)-1H-1,2,3-benzotriazole], in assay [1], the Emax was below 75% and the “hS1P1 cAMP pEC50” value is below 6.5. For the same compound, in assay [2], the Emax was below 75% and the “hS1P1 B-arrestin2 pEC50” value was below 5.

Regarding `COc1ccc(-c2nc(-c3ccc4c(c3)nnn4C(C)C)no2)c(C)c1` [Compound 90, 3-(1-isopropyl-1H-benzo[d][1,2,3]triazol-5-yl)-5-(4-methoxy-2-methylphenyl)-1,2,4-oxadiazole], in assay [1], the Emax was above 75% and the “hS1P1 cAMP pEC50” value is on record as below 6.5. In assay [2], the Emax is above 75% and the “hS1P1 B-arrestin2 pEC50” value is above 5.

On to `COc1ccc(-c2noc(-c3ccc4c(c3)nnn4C3CCCC3)n2)c2ccccc12` [Compound 91, 1-cyclopentyl-5-[3-(4-methoxynaphthalen-1-yl)-1,2,4-oxadiazol-5-yl]-1H-1,2,3-benzotriazole], for which, in assay [1], the Emax is below 75% and the “hS1P1 cAMP pEC50” value is reported as below 6.5. In assay [2], the Emax is below 75% and the “hS1P1 B-arrestin2 pEC50” value is reported as below 5.

Consider `c1ccc(Cc2noc(-c3ccc4c(c3)nnn4C3CCCC3)n2)cc1` [Compound 92, 5-(3-benzyl-1,2,4-oxadiazol-5-yl)-1-cyclopentyl-1H-1,2,3-benzotriazole], for which the Emax in assay [1] and in assay [2] was below 75% each time. The EC50 is above 0.316 µM in assay [1] and above 10 µM in assay [2].

Consider `Cc1ccncc1-c1noc(-c2ccc3c(c2)nnn3C2CC2)n1` [Compound 94, 1-cyclopropyl-5-[3-(4-methylpyridin-3-yl)-1,2,4-oxadiazol-5-yl]-1H-1,2,3-benzotriazole], for which, in assay [1], the Emax is above 75% and the “hS1P1 cAMP pEC50” value is below 6.5. For the same compound, in assay [2], the Emax was above 75% and the “hS1P1 B-arrestin2 pEC50” value was below 5.

As for `Cc1ccccc1-c1noc(-c2ccc3c(c2)nnn3C2CCOCC2)n1` [Compound 95, 5-[3-(2-methylphenyl)-1,2,4-oxadiazol-5-yl]-1-(oxan-4-yl)-1H-1,2,3-benzotriazole], in assay [1], the Emax is below 75% and the “hS1P1 cAMP pEC50” value was below 6.5. Also, in assay [2], the Emax is below 75% and the “hS1P1 B-arrestin2 pEC50” value is listed as below 5.

On to `Brc1ccccc1-c1nc(-c2ccc3[nH]nnc3c2)no1` [Compound 97, 3-(1H-benzo[d][1,2,3]triazol-5-yl)-5-(2-bromophenyl)-1,2,4-oxadiazole], for which, in assay [1], the Emax was below 75% and the “hS1P1 cAMP pEC50” value is below 6.5. Also, in assay [2], the Emax is below 75% and the “hS1P1 B-arrestin2 pEC50” value is below 5.

As for `Brc1ccccc1-c1nc(-c2ccc3c(c2)nnn3CC2CC2)no1` [Compound 98, 5-(2-bromophenyl)-3-(1-(cyclopropylmethyl)-1H-benzo[d][1,2,3]triazol-5-yl)-1,2,4-oxadiazole], in assay [1], the Emax was above 75% and the “hS1P1 cAMP pEC50” value is on record as below 6.5. In addition, in assay [2], the Emax is above 75% and the “hS1P1 B-arrestin2 pEC50” value is given as above 5.

As to `Cc1ccncc1-c1nc(-c2ccc3c(c2)nnn3C(C)C)no1` [Compound 100, 3-(1-isopropyl-1H-benzo[d][1,2,3]triazol-5-yl)-5-(4-methylpyridin-3-yl)-1,2,4-oxadiazole], in assay [1], the Emax is below 75% and the “hS1P1 cAMP pEC50” value was below 6.5. For the same compound, in assay [2], the Emax was below 75% and the “hS1P1 B-arrestin2 pEC50” value is below 5.

Consider `Cc1ccncc1-c1noc(-c2ccc3c(c2)nnn3C(C)C)n1` [Compound 101, 5-[3-(4-methylpyridin-3-yl)-1,2,4-oxadiazol-5-yl]-1-(propan-2-yl)-1H-1,2,3-benzotriazole], for which, in assay [1], the Emax is above 75% and the “hS1P1 cAMP pEC50” value is above 6.5. Besides, in assay [2], the Emax is above 75% and the “hS1P1 B-arrestin2 pEC50” value is listed as above 5.

For the compound `O=C1CCOc2ccc(-c3nc(-c4cccnc4)no3)cc21` [Compound 102, 6-[3-(pyridin-3-yl)-1,2,4-oxadiazol-5-yl]-3,4-dihydro-2H-1-benzopyran-4-one], in assay [1], the Emax is below 75% and the “hS1P1 cAMP pEC50” value is below 6.5. Also, in assay [2], the Emax was below 75% and the “hS1P1 B-arrestin2 pEC50” value is reported as below 5.

With `CCC1(CC)CC(=O)c2cc(-c3nnc(-c4cccnc4)s3)ccc2O1` [Compound 104, 2,2-diethyl-6-(5-(pyridin-3-yl)-1,3,4-thiadiazol-2-yl)chroman-4-one], in assay [1], the Emax was above 75% and the “hS1P1 cAMP pEC50” value was above 6.5. For the same compound, in assay [2], the Emax is above 75% and the “hS1P1 B-arrestin2 pEC50” value is given as below 5.

In the case of `CCC1(CC)CC(=O)c2cc(-c3nc(-c4ccc(O)nc4)no3)ccc2O1` [Compound 105, 2,2-diethyl-6-[3-(6-hydroxy-3-pyridyl)-1,2,4-oxadiazol-5-yl]chroman-4-one], in assay [1], the Emax is below 75% and the “hS1P1 cAMP pEC50” value is reported as below 6.5. Besides, in assay [2], the Emax is below 75% and the “hS1P1 B-arrestin2 pEC50” value is reported as below 5.

For the compound `COc1cccc(-c2cnc(-c3ccc4c(c3)nnn4C(C)C)s2)c1` [Compound 108, 2-(1-isopropyl-1H-benzo[d][1,2,3]triazol-5-yl)-5-(3-methoxyphenyl)thiazole], in assay [1], the Emax is below 75% and the “hS1P1 cAMP pEC50” value is on record as above 6.5. Besides, in assay [2], the Emax was below 75% and the “hS1P1 B-arrestin2 pEC50” value is below 5.

In the case of `COc1ccc(-c2cnc(-c3ccc4c(c3)nnn4C(C)C)s2)cc1` [Compound 109, 2-(1-isopropyl-1H-benzo[d][1,2,3]triazol-5-yl)-5-(4-methoxyphenyl)thiazole], in assay [1], the Emax is below 75% and the “hS1P1 cAMP pEC50” value is below 6.5. In assay [2], the Emax is below 75% and the “hS1P1 B-arrestin2 pEC50” value is above 5.

Values taken from patent US11912693B2, “Compounds for modulating S1P1 activity and methods of using the same” (TREVENA, INC., priority 2017, dated 2024).
